{
  "source": "patent US11337427B2",
  "about": "“Antimicrobial agents and their use in therapy” (priority 2013, dated 2022)",
  "key": {"[1]": {"tested_on": "Saccharomyces cerevisiae wild type BY4743", "assay": "Yeast growth study in microplates (OD 600 nm)", "conditions": "for concentration required to retard growth of the yeast cells: agent alone, wild-type yeast", "experimental": "Growth studies on wild-type (wt) yeast and the Hog1 mutant were performed. […] The OD (600 nm) in each well was read every 20 minutes using an integrated Beckman Coulter Paradigm microplate reader. The growth of the yeast strains in the microplates was monitored for approximately 25 hours."}, "[2]": {"tested_on": "Yeast cells (Saccharomyces cerevisiae)", "assay": "Cellular import of FAM-labelled ATX-101 (laser scanning microscopy)", "assay_type": "cell-based", "conditions": "FAM-labelled peptide, 1-2 minutes incubation", "procedure": "Yeast cells (Saccharomyces cerevisiae) were grown in LB media. A fluorescently labelled APIM peptide (ATX-101-FAM) was added to the media and incubated for 1-2 minutes before an aliquot of cells was removed and analyzed on a Zeiss LSM 510 Meta laser scanning microscope equipped with a Plan-Apochromate 63×/1.4 oil immersion objective."}, "[3]": {"tested_on": "Staphylococcus aureus NCTC 6571", "assay": "MIC assay", "conditions": "starting concentration 150 μg/ml"}, "[4]": {"tested_on": "Staphylococcus aureus MRSA 1096", "assay": "MIC assay", "conditions": "starting concentration 150 μg/ml"}, "[5]": {"tested_on": "gram negative bacteria (Pseudomonas aeruginosa ATCC 15692, Acinetobacter baumanni ATCC 19606, Escherichia coli ATCC 25922, Pseudomonas aeruginosa TO-5A)", "assay": "Robotic MIC assay, gram negative bacteria", "conditions": "FIG. 4"}, "[6]": {"tested_on": "gram positive bacteria (Enterococcus faecium CCUG 37832, Enterococcus faecium CTC 492, Micrococcus luteus ATCC 9341)", "assay": "Robotic MIC assay, gram positive bacteria", "conditions": "FIG. 5"}, "E. coli NCIMB 12210": {"tested_on": "E. coli NCIMB 12210", "conditions": "E. coli NCIMB 12210, FIG. 7"}, "E. coli BL21 (ripl)": {"tested_on": "E. coli BL21 (ripl)", "assay": "Overexpression of APIM peptides in E. coli (growth, OD)", "assay_type": "cell-based", "conditions": "induced with 1 mM IPTG; no cell-penetrating peptide", "text": "In order to verify further that the anti-microbial effect of the APIM peptides arises from the APIM sequence, peptides containing only the APIM sequence (i.e. without a cell-penetrating peptide) were over-expressed in E. coli using the expression vector pET28. The APIM peptide was expressed alone or as part of a fusion protein with EYFP. Expression of EYFP alone was used as a control.\nThe expression vectors containing the respective peptides were transfected into the bacterial strain E. coli BL21 (ripl). Single colonies, 4-6 of each strain, were inoculated in […] LB media (+Km/Clm) in 96 wells plates, and incubated at 37° C. Overnight cultures were diluted 1:100 and grown for 1 h before induction with 1 mM IPTG (initiating peptide expression). OD was measured every hour."}},
  "data": [
    {"compound": "N.N.[Cl][Pt][Cl]", "note": "[cisplatin]", "values": [
      {"measurement": "concentration required to retard growth of the yeast cells", "setting": "[1]", "result": 500, "unit": "µM"},
      {"measurement": "effect on growth of the yeast cells", "setting": "[1]; cisplatin 125 μM alone", "result": "not sufficient to retard growth"},
      {"measurement": "effect on growth of the yeast cells", "setting": "[1]; cisplatin 2000 μM alone", "result": "growth is not completely inhibited"}
    ]},
    {"compound": "Ac-MDRWLVKWKKKRKIRRRRRRRRRRR [ATX-101]", "values": [
      {"measurement": "cellular import", "setting": "[2]", "result": "imported into yeast cells"},
      {"measurement": "Factor of inhibition", "setting": "[3]", "result": 1},
      {"measurement": "Factor of inhibition", "setting": "[4]", "result": 0.0625},
      {"measurement": "concentration from which growth is inhibited", "setting": "[5]", "result": "about 1 μM"},
      {"measurement": "concentration from which growth is inhibited", "setting": "[6]", "result": "about 1 μM"},
      {"measurement": "concentration required to retard growth of the yeast cells", "setting": "[1]", "result": "≥ 20", "unit": "µM"},
      {"measurement": "reduction of the MIC for novobiocin", "setting": "E. coli NCIMB 12210", "result": 16, "unit": "fold"}
    ]},
    {"compound": "RFSLK (APIM variant) [APIM variant over-expressed in E. coli]", "values": [
      {"measurement": "effect of overexpression on bacterial growth", "setting": "E. coli BL21 (ripl)", "result": "particularly effective"}
    ]},
    {"compound": "RWLTK (APIM variant) [APIM variant over-expressed in E. coli]", "values": [
      {"measurement": "effect of overexpression on bacterial growth", "setting": "E. coli BL21 (ripl)", "result": "particularly effective"}
    ]},
    {"compound": "RWLVK (APIM variant)", "values": [
      {"measurement": "effect of overexpression on bacterial growth", "setting": "E. coli BL21 (ripl)", "result": "inhibits bacterial growth"}
    ]},
    {"compound": "RWLVP (APIM variant) [APIM variant over-expressed in E. coli]", "values": [
      {"measurement": "effect of overexpression on bacterial growth", "setting": "E. coli BL21 (ripl)", "result": "particularly effective"}
    ]}
  ]
}
